# Laboratory results: PubChem BioAssay AID2060909 (Molecular Pharmacology Branch, DTP, NCI, 2025)
# Test system: 362531-283-R-J2-PDC complex spheroid viability
# Test: Anticancer human tumor 362531-283-R-J2-PDC patient-derived colon adenocarcinoma cell line growth inhibition [RAS]
# Conditions: for IC50: curve of first compound; for viability, T/C: stronger effect = lower value
# Excerpt: RAS pathway inhibitors in Combinations in Complex Spheroids
# A high-throughput screen of multi-cell type tumor spheroids was designed to identify active combinations of RAS pathway inhibitors and targeted small molecules. Complex spheroids include a stromal component modeled by human endothelial cells (HUVEC) and fibroblasts modeled by human mesenchymal stem cells (MSCs). The concentration ranges selected for each drug and investigational agent were based upon clinically achievable concentrations if the clinical Cmax of the agent was known.
# Compounds. The drugs and investigational agents: abemaciclib (NSC768073), cobimetinib (NSC768068), divarasib (GDC6063, NSC841802), docetaxel (NSC628503), GDC-1971 (RLY-1971, NSC841576), gemcitabine (NSC613327), inavolisib (NSC800729), ipatasertib (NSC767898), KB-0742 (NSC834161), MRTX-1133 (NSC836407), osimertinib (NSC779217), RMC-4630 (NSC839698), RMC-6236 (NSC851965), RMC-6291 (NSC852671), Ro-3306 (NSC812927), sapanisertib (NSC764658), SN-38 (NSC673596), staurosporine (NSC755774), SY5609 (NSC837396), and tovorafenib (DAY101, NSC766906), were obtained from the National Cancer Institute (NCI) Developmental Therapeutics Program Chemical Repository. The FDA-approved anticancer drug set is available from the NCI Developmental Therapeutics Program. […] The stock solutions were prepared in dimethyl sulfoxide (DMSO, Sigma-Aldrich, St. Louis, MO, cat. D2650) at 800-fold the tested concentration and stored at -70 degrees C prior to their use. All drugs and investigational agents were tested over a range starting from a high concentration at or near the clinical Cmax and decreasing in half-log increments. If the clinical Cmax for an agent had not been determined, the highest concentration tested was 10 microM.
# Cell Culture. All cells were maintained in an incubator at 37 degrees C and 5% CO2 with 95% humidity. The PDC lines were cultured according to standard operating procedures established by the NCI PDMR. All PDCs were thawed and cultured in Matrigel-coated flasks prepared with a working solution of 1X Ham's F-12 nutrient mix, without supplementation (Invitrogen, Waltham, MA, cat. 11765054), 100 U/mL penicillin-streptomycin (Invitrogen, cat. 15140122), and 2.5% Matrigel (Corning Inc., Corning, NY, cat. 354248) for the first three passages. The 362531-283-R-J2-PDC and 782815-120-R-J1-PDC lines were cultured in 6C/Colon 1B media, which includes advanced DMEM/F-12 (Thermo Fisher Scientific, cat. 12634028), 10 mM HEPES (Thermo Fisher Scientific, cat. 15630080), 1X GlutaMAX supplement (Thermo Fisher Scientific, cat. 35050061), 0.1 mg/mL primocin (InvivoGen, San Diego, CA, cat. ant-pm-2), 10% defined fetal bovine serum, heat inactivated (HyClone Laboratories Inc., Logan, UT, cat. SH30070.03HI), 50% L-WRN conditioned media (ATCC, cat. CRL-3276), 1.25 mM N-Acetyl-L-cysteine (Sigma-Aldrich, cat. A9165), 10 mM nicotinamide (Sigma-Aldrich, cat. N0636), 1X B-27 supplement (Thermo Fisher Scientific, cat. 17504044), 1X N-2 supplement (Thermo Fisher Scientific, cat. 17502048), 50 ng/mL human EGF (Thermo Fisher Scientific, cat. PHG0311), and 10 microM Y-27632 dihydrochloride (Tocris Bioscience, cat. 1254). The K12877-001-R-J1-PDC line was cultured in 6I media, which includes all 6C/Colon 1B media plus 10 ng/mL human FGF-10 (PeproTech, cat. 100-26), 1 ng/mL human FGF-2 (PeproTech, cat. 100-18B), 1 µM prostaglandin E2 (Tocris Bioscience, cat. 2296), […] hydrocortisone (Sigma-Aldrich, cat. H4001), and […] bovine insulin (Sigma-Aldrich, cat. I6634). The K86415-001-R-J1-PDC line was cultured in 6D media, which includes all 6C/Colon 1B media components minus the L-WRN conditioned media. The 485176-168-R4-J1-PDC was cultured in PANC media, which includes all 6C/Colon 1B media plus 100 ng/mL human FGF-10 (PeproTech, cat. 100-26), 500 nM SB-431542 (Selleckchem, cat. S1067), and 10 nM gastrin (Tocris Bioscience, cat. 3006). […]
# 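Further: spheroids exposed to the agents for 7 days before readout.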
# 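Wherever viability, T/C is given: luminescence viability as percent of DMSO vehicle control wells.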
smiles,measurement,setting,value
C[C@@H](NC(=O)c1ncnc(N)c1Cl)c1ncc(C(=O)Nc2cc(C(F)(F)F)c(Cl)cn2)s1 + C#Cc1c(F)ccc2cc(O)cc(-c3ncc4c(N5CC6CCC(C5)N6)nc(OCC56CCCN5CC(F)C6)nc4c3F)c12,IC50,second compound 0.0316 µM,> 10 µM
same,IC50,second compound 0.1 µM,> 10 µM
same,IC50,second compound 0.316 µM,> 10 µM
same,IC50,second compound 1 µM,> 10 µM
same,IC50,second compound 3.16 µM,8.75 µM
same,IC50,second compound 10 µM,3.61 µM
same,"viability, T/C","second compound 0.0316 µM, first compound 0.0316 µM",92.9%
same,"viability, T/C","second compound 0.0316 µM, first compound 0.1 µM",111%
same,"viability, T/C","second compound 0.0316 µM, first compound 0.316 µM",111%
same,"viability, T/C","second compound 0.0316 µM, first compound 1 µM",97%
same,"viability, T/C","second compound 0.0316 µM, first compound 3.16 µM",92.4%
same,"viability, T/C","second compound 0.0316 µM, first compound 10 µM",70.5%
same,"viability, T/C","second compound 0.1 µM, first compound 0.0316 µM",104%
same,"viability, T/C","second compound 0.1 µM, first compound 0.1 µM",97.1%
same,"viability, T/C","second compound 0.1 µM, first compound 0.316 µM",94.8%
same,"viability, T/C","second compound 0.1 µM, first compound 1 µM",95.3%
same,"viability, T/C","second compound 0.1 µM, first compound 3.16 µM",93.6%
same,"viability, T/C","second compound 0.1 µM, first compound 10 µM",66.1%
same,"viability, T/C","second compound 0.316 µM, first compound 0.0316 µM",94.2%
same,"viability, T/C","second compound 0.316 µM, first compound 0.1 µM",96.9%
same,"viability, T/C","second compound 0.316 µM, first compound 0.316 µM",93.4%
same,"viability, T/C","second compound 0.316 µM, first compound 1 µM",94.4%
same,"viability, T/C","second compound 0.316 µM, first compound 3.16 µM",91.6%
same,"viability, T/C","second compound 0.316 µM, first compound 10 µM",60.7%
same,"viability, T/C","second compound 1 µM, first compound 0.0316 µM",94.3%
same,"viability, T/C","second compound 1 µM, first compound 0.1 µM",84.8%
same,"viability, T/C","second compound 1 µM, first compound 0.316 µM",99.3%
same,"viability, T/C","second compound 1 µM, first compound 1 µM",87%
same,"viability, T/C","second compound 1 µM, first compound 3.16 µM",92.8%
same,"viability, T/C","second compound 1 µM, first compound 10 µM",52.5%
same,"viability, T/C","second compound 3.16 µM, first compound 0.0316 µM",78.6%
same,"viability, T/C","second compound 3.16 µM, first compound 0.1 µM",80.3%
same,"viability, T/C","second compound 3.16 µM, first compound 0.316 µM",79.2%
same,"viability, T/C","second compound 3.16 µM, first compound 1 µM",74.1%
same,"viability, T/C","second compound 3.16 µM, first compound 3.16 µM",69.8%
same,"viability, T/C","second compound 3.16 µM, first compound 10 µM",47.2%
same,"viability, T/C","second compound 10 µM, first compound 0.0316 µM",63%
same,"viability, T/C","second compound 10 µM, first compound 0.1 µM",75.4%
same,"viability, T/C","second compound 10 µM, first compound 0.316 µM",71.7%
same,"viability, T/C","second compound 10 µM, first compound 1 µM",60.6%
same,"viability, T/C","second compound 10 µM, first compound 3.16 µM",53.4%
same,"viability, T/C","second compound 10 µM, first compound 10 µM",31.6%
